The assay addresses X-box-binding protein 1 (Homo sapiens) (UniProt P17861). Nature of the assay: inhibitors of XBP1 reporter signal, dose response, counter-screen, cell-based (AID 504313).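 Note: CHO cells carrying an XBP1 reporter stimulated with tunicamycin; potency is for inhibition of the tunicamycin-induced reporter signal.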 The following applies: XBP1 reporter cell assay, percent of control. In general terms: Counterscreens check selectivity or assay interference.

Calls of active or inactive are those of the source. The rule behind the calls is not given here.

This note sets out measurements from PubChem BioAssay AID504313 (Emory University Molecular Libraries Screening Center, 2011).

The term IC50 denotes the concentration at which inhibition is half-maximal. As to `O=c1[nH]c(=O)n(Cc2ccco2)c2c1C(C(F)(F)F)(C(F)(F)F)N=C(c1ccc(F)cc1)N2`, the IC50 was > 10 µM (inactive). As for `CC(C)(C)c1ccc(-c2noc(CCC(N)=O)n2)cc1`, the figure is < 0.16 µM (inactive); as for `CCCNC(=O)c1nnsc1S(=O)c1ccc(Cl)cc1` (configuration not stated), “inactive”; as for `O=C1NC(=S)S/C1=C\C=C\c1ccc([N+](=O)[O-])o1`, “inactive”. As for `COc1ccc(/C=C2/SC(=S)N(CCCC(=O)Nc3ccc(O)cc3)C2=O)cc1`, the figure is 0.18 µM; as for `CCOc1cc(/C=C\[N+](=O)[O-])ccc1OCC(=O)Nc1ccccc1C`, 4.59 µM; as for `CCCCn1c(=O)[nH]c(=O)c2c1nc(-c1ccc(OCCC)c(OCC)c1)n2C`, > 10 µM (inactive). Turning to `CCCCCCn1c(=O)c(C(=O)N/N=C/c2cccc(F)c2)c(O)c2ccccc21`, the IC50 result is “inactive”. As for `Fc1ccc(Nc2nc(NCc3ccco3)c3ccccc3n2)cc1`, the IC50 is > 10 µM (inactive). As for `C=CCN1C(=O)/C(=C/c2ccc(OC(C)=O)c(OCC)c2[N+](=O)[O-])SC1=S`, the IC50 result is “inactive”.

`CN1/C(=C/C(=O)c2nc(S(C)(=O)=O)ncc2Cl)C(C)(C)c2ccccc21`: the IC50 result is “inactive”. With `Cc1cccc(NC(=O)CSc2nc(C)c(CC(=O)c3ccc(Br)cc3)c(C)c2C#N)c1C`, the IC50 entry was “inactive”. The value for `Fc1ccc(-n2nnnc2-c2cnc(-c3cccs3)nc2C(F)(F)F)cc1` was “inactive”; that for `CC1=CC2/C=C(\C)CCC(O)C(O)/C=C/C(=O)C23C(=O)NC(CC(C)C)C3C1C` (configuration not stated) was “inactive”.

On to `Clc1ccc2[nH]c(-c3ccccc3)cc2c1`, for which the IC50 is > 10 µM (inactive). As for `CC1=C(C)/C(=N\OS(=O)(=O)c2ccc(C)cc2)C=CC1=O`, the figure is 1.63 µM; as for `Cc1ccc(C2(c3ccc(C)cc3)CC2C(=O)Nc2ccc([N+](=O)[O-])cc2O)cc1` (configuration not stated), “inactive”.

Take `CC1=CCC[C@@H]2[C@@](C)(CC/C(C)=C/C(=O)O)[C@H](C)CC[C@@]12C`: the IC50 is > 10 µM (inactive). On to `CC(C)Cn1c(N)c(C(=O)COC(=O)CC23CC4CC(CC(C4)C2)C3)c(=O)n(C)c1=O`, for which the IC50 entry is “inactive”.

As to `O=C(Nc1ccc(Cl)c(C(F)(F)F)c1)NC1CC2CCCC(C1)N2Cc1ccccc1` (configuration not stated), the IC50 was > 10 µM (inactive). As for `C#CC(=O)N(c1ccc(OC)c(OC)c1)C(C(=O)NC1CCCC1)c1cccs1` (configuration not stated), the entry is “inactive”; as for `CCN(CC)S(=O)(=O)c1cccc(NC(=O)Nc2cccc(C(F)(F)F)c2)c1`, “inactive”.

Regarding `O=C(Nc1ccc(Br)c(C(F)(F)F)c1)c1ccc(C(F)(F)F)cc1`, the IC50 is 5.44 µM. As for `O=C(OCC(F)(F)F)c1cccc(COc2ccc3ccccc3c2)c1`, the IC50 is 0.98 µM. Regarding `O=C1C(=C2SCCCS2)CC/C1=C\c1ccc(F)cc1`, the IC50 is 3.13 µM. For `CN(C)CCCn1c(SCC(=O)Nc2nc(-c3cccc(Br)c3)cs2)nc2ccccc2c1=O`, the IC50 was > 10 µM (inactive). As for `Nc1cc(Cl)c2nonc2c1[N+](=O)[O-]`, the entry is “inactive”. As for `O=C(CSc1ncnc2[nH]ncc12)Nc1nc(-c2ccc(F)c(F)c2)cs1`, the figure is > 10 µM (inactive); as for `CC(C)(C)C(=O)Nc1ccc(-c2nc3ccccc3c(=O)o2)cc1`, 1.2 µM. The value for `O=C(Cc1ccccc1)Nc1cccc(N2C(=O)C=CC2=O)c1` was “inactive”. As to `O=C(OCn1ncc(Cl)c(Cl)c1=O)c1cccc(C(F)(F)F)c1`, the IC50 result is “inactive”. In the case of `CC(/C=C1\SC(=O)N(CCCC(=O)O)C1=O)=C\c1ccccc1`, the IC50 was < 0.16 µM. Regarding `COC(=O)/C=C\C(=O)Nc1cccc([N+](=O)[O-])c1`, the IC50 is > 10 µM (inactive). As for `O=C1C=CC(O)(c2cc(=O)c3c(O)cc(O)cc3o2)C=C1`, the figure is 3.84 µM; as for `Cc1ccc2[nH]c(O)c(N=NC(=O)CCc3ccccc3)c2c1Br`, “inactive”.

As for `CC1CN(S(=O)(=O)c2ccc(C(=O)Nc3nc(-c4cc5ccccc5o4)cs3)cc2)CC(C)O1` (configuration not stated), the IC50 was > 10 µM (inactive). Consider `Cc1cccc(OCC(=O)N/N=C\C=C\c2ccc3c(c2)OCO3)c1C`, for which the IC50 is > 10 µM (inactive). The value for `Cn1cnc([N+](=O)[O-])c1S(=O)(=O)c1cccc(Cl)c1` was “inactive”. As for `CCCCC(CC)Cn1c(N)c(C#N)c2nc3ccccc3nc21` (configuration not stated), the entry is “inactive”. For `O=C(Nc1ccc(Oc2ccccc2)cc1)C1CCN(c2c3c(nc4ncnn24)CCC3)CC1`, the IC50 was > 10 µM (inactive).

As to `CCCCCCn1c(CN2CCN(Cc3ccccc3)CC2)nc2c1c(=O)n(C)c(=O)n2C`, the IC50 was > 10 µM (inactive). As for `COC(=O)c1ccc2c(c1)C(C)(C)C(/C=C/c1ccc(O)cc1)=[N+]2C`, the figure is > 10 µM (inactive).

As to `CN(C)c1ccc(/C=C/c2ccc3c4ccccc4ccc3[n+]2-c2ccccc2)cc1`, the IC50 was 2.28 µM.

In the case of `O=C(N/N=C/c1cccs1)c1cccc(NC(=O)c2ccc(Cl)cc2)c1`, the IC50 result is “inactive”.

With `CC(C)c1ccc(O)c(NC(=S)NC(=O)CCc2ccccc2)c1`, the IC50 entry was “inactive”. On to `CCCCCCCCCS(=O)(=O)N/N=C/c1cccc([N+](=O)[O-])c1`, for which the IC50 result was “inactive”.

For `O=C(NCc1nc(-c2ccc(C(F)(F)F)cc2)no1)Nc1cc(Cl)cc(Cl)c1`, the IC50 entry was “inactive”.

Turning to `COC(=O)c1c(NC(=O)Nc2ccc(Cl)cc2)sc(C)c1C`, the IC50 is > 10 µM (inactive). As for `COc1ccc(N/N=C(\C=N\O)C(=O)c2ccc(OC)cc2)cc1`, the figure is > 10 µM (inactive). Regarding `N#Cc1c(N)nc(SCC(=O)C23CC4CC(CC(C4)C2)C3)c(C#N)c1-c1ccc(Cl)cc1`, the IC50 is > 10 µM (inactive). Turning to `C[C@H](NC(=O)c1[nH]cnc1C(=O)Nc1ccc(CNC(=O)OC(C)(C)C)cc1)C(=O)OC(C)(C)C`, the IC50 result was “inactive”. Regarding `NC(=S)n1[nH]c(-c2ccc([N+](=O)[O-])cc2)c(N=Nc2cccc([N+](=O)[O-])c2)c1=O`, the IC50 result was “inactive”. On to `C=C(C)C(=O)OC1(C(F)(F)F)Oc2cc(C)ccc2NC1=O` (configuration not stated), for which the IC50 result was “inactive”. Consider `CCOc1ccc(-c2cc(CCCC(=O)NCc3ccc(C)cc3)no2)cc1`, for which the half-maximal inhibitory concentration (IC50) was 0.29 µM.

For `CC(C)CCSc1nc2c(c(=O)[nH]c(=O)n2C)n1CCCc1ccccc1`, the IC50 is > 10 µM (inactive).

For the molecule `Cc1cc(/C=N/n2cnnc2)c(C)n1-c1ccc(OCc2ccccc2F)cc1`, the IC50 was 4.85 µM.

Consider `O=C(Nc1cccc(-c2nc3ncccc3o2)c1)c1sc2ccccc2c1Cl`, for which the IC50 is > 10 µM (inactive). As for `O=C(NC(Nc1nc2ccc([N+](=O)[O-])cc2s1)(C(F)(F)F)C(F)(F)F)c1ccccc1Cl`, the figure is 0.34 µM; as for `CC(C)NC(=O)c1ccccc1NC(=O)/C=C/c1cccc([N+](=O)[O-])c1`, > 10 µM (inactive).

As to `Cc1ccc(NC2=C/C(=N\S(=O)(=O)c3cccs3)c3ccccc3C2=O)c(C)c1`, the IC50 is 0.55 µM. On to `CCOc1ccc(C(=O)C(CCC(CN(C)C)C(=O)c2ccc(OCC)cc2)CN(C)C)cc1` (configuration not stated), for which the IC50 entry was “inactive”. As for `Cc1cccc(N2CCN(C(=O)c3c(C)nn(Cc4ccccc4Cl)c3C)CC2)c1C`, the figure is > 10 µM (inactive).
